Molecules are shown by their SMILES. pIC50, pKi: −log10 of the molar value.

Data set [1] deals with T1, Aromatase (Homo sapiens, UniProt P11511).
T1 sequence (P11511 whole entry): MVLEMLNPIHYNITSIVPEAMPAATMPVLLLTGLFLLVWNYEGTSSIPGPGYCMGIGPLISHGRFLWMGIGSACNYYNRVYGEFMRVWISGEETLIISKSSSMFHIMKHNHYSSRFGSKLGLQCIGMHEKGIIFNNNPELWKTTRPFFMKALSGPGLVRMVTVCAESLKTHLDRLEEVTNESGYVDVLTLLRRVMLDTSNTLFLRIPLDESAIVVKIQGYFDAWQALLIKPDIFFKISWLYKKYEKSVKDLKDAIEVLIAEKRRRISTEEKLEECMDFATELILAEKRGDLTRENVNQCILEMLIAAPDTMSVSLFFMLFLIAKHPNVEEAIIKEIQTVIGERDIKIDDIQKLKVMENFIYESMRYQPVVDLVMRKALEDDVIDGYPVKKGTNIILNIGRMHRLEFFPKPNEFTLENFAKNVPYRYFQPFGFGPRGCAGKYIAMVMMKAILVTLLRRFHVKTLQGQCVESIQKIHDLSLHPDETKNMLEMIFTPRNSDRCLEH
Description: Competitive inhibition of human aromatase extracted from placental microsomes by Dixon plot analysis in presence of [1beta-3H]AD.

For data set [2], the target named is T1, Aromatase. The experiment in a line: Competitive inhibition of human aromatase extracted from placental microsomes by Dixon plot analysis in presence of [1beta-3H]androstenedione.
Data set [3] has as its target T1, Aromatase. The experiment in a line: Inhibition of human aromatase extracted from placental microsomes using [1beta-3H]androstenedione as substrate after 20 mins by radiometric assay.
Data set [4] deals with T1, Aromatase. Description: Competitive inhibition of aromatase (unknown origin).
In data set [5] the target is T1, Aromatase. The experiment in a line: Competitive inhibition of human aromatase extracted from placental microsomes after 10 mins in presence of [1beta-3H]androstenedione.
Data set [6] has as its target T1, Aromatase.
Data set [7] concerns the target T1, Aromatase. Description: Inhibition of human aromatase extracted from placental microsomes using 4-[14C]androstenedione as substrate at 0.25 to 1.25 uM after 15 mins.
Data set [8] deals with T1, Aromatase. Description: Inhibition of human aromatase extracted from placental microsomes using [1beta-3H]AD as substrate by radiometric assay.

As for `C[C@]12C[C@@H](O)C(=O)C=C1CC[C@@H]1[C@@H]2CC[C@]2(C)C(=O)CC[C@@H]12`, the pKi at Aromatase [1] (read-out: Ki) is 6.17. In the case of `CC(=O)O[C@@H]1C=C2C(=O)C[C@@H]3[C@H](CC[C@]4(C)C(=O)CC[C@@H]34)[C@@]2(C)CC1`, on Aromatase [2] (read-out: Ki), the pKi is 5.26. The compound further had a pIC50 against Aromatase [3] of 5.77. In turn, `C[C@]12CCC3C(C[C@H]4COC[C@@]35CCC(=O)C=C45)C1CCC2=O` (some centres not stated) showed a pKi on Aromatase [4] of 5.00.

For the compound `C=C[C@@H]1C[C@@H]2[C@H](CC[C@]3(C)C(=O)CC[C@@H]23)[C@@]2(C)CCC(=O)C=C12`, the pKi at Aromatase [5] was 8.29. Take `C=CC1OC2(O)CC[C@]13C(=CC[C@@H]1[C@@H]3CC[C@]3(C)C(=O)CC[C@@H]13)C2` (some centres not stated): the pKi at Aromatase [4] is 5.00. Consider `C[C@]12C=C(CCCc3ccccc3)C(=O)C=C1CC[C@@H]1[C@@H]2CC[C@]2(C)C(=O)CC[C@@H]12`, for which, on Aromatase [6], the pKi was 7.79. This compound also gave a pIC50 on Aromatase [3] of 6.85. For the compound `C#CC[C@@H]1C[C@@H]2[C@H](CC[C@]3(C)C(=O)CC[C@@H]23)[C@@]2(C)CCC(=O)C=C12`, the pKi at Aromatase [5] is 8.00. Regarding `C[C@]12CC[C@H]3[C@@H](CCC4=CC(=O)CC[C@@]43N)[C@@H]1CCC2=O`, the INH at Aromatase [7] is given as < 20%.

Regarding `C[C@@H]1C[C@@H]2[C@H](CC[C@]3(C)C(=O)CC[C@@H]23)[C@@]2(C)CCC(=O)C=C12`, the pKi on Aromatase [5] was 8.85. As to `CO[C@H]1C=C2C(=O)C[C@@H]3[C@H](CC[C@]4(C)C(=O)CC[C@@H]34)[C@@]2(C)CC1`, on Aromatase [1] (read-out: Ki), the pKi was 6.15. In the case of `C[C@]12CC[C@H]3[C@@H](CCC4=CC(=O)CC[C@@]43/C=N/O)[C@@H]1CCC2=O`, at Aromatase [7], the INH was < 20%. `C[C@]12C[C@@H](Cl)C(=O)C=C1CC[C@@H]1[C@@H]2CC[C@]2(C)C(=O)CC[C@@H]12`: the pKi at Aromatase [1] (read-out: Ki) is 7.35. On to `C[C@]12CCC(=O)C=C1C(=O)C[C@@H]1[C@@H]2CC[C@]2(C)C(=O)[C@H](Br)C[C@@H]12`, for which the pKi at Aromatase [1] (read-out: Ki(app)) was 6.82. Regarding `C=C1C[C@@]2(C)C(=CC1=O)CC[C@@H]1[C@@H]2CC[C@]2(C)C(=O)CC[C@@H]12`, the pKi at Aromatase [1] (read-out: Ki) is 7.17. The same compound gave a pIC50 at Aromatase [8] of 6.26. Consider `C[C@H]1C[C@@H]2[C@H](CC[C@]3(C)C(=O)CC[C@@H]23)[C@@]2(C)CCC(=O)C=C12`, for which the pKi on Aromatase [5] is 8.85.

Take `C[C@]12CCC(=O)C=C1[C@@H](Cc1ccccc1)C[C@@H]1[C@@H]2CC[C@]2(C)C(=O)CC[C@@H]12`: on Aromatase [5], the pKi is 8.00. For the compound `COC(=O)N[C@]12CCC(=O)C=C1CC[C@H]1[C@@H]3CCC(=O)[C@@]3(C)CC[C@@H]12`, on Aromatase [7], the INH is reported as < 20%.

On to `C[C@]12C[C@@H](Br)C(=O)C=C1CC[C@@H]1[C@@H]2CC[C@]2(C)C(=O)CC[C@@H]12`, for which the negative-log Ki (pKi) on Aromatase [1] (read-out: Ki) was 7.35.

On to `CCO[C@@H]1C[C@@]2(C)C(=CC1=O)CC[C@@H]1[C@@H]2CC[C@]2(C)C(=O)CC[C@@H]12`, for which the pKi at Aromatase [1] (read-out: Ki) is 6.17. Turning to `CO[C@@H]1C[C@@]2(C)C(=CC1=O)CC[C@@H]1[C@@H]2CC[C@]2(C)C(=O)CC[C@@H]12`, the pKi on Aromatase [1] (read-out: Ki) is 6.17. Turning to `C[C@]12CC[C@H]3[C@@H](CCC4=CC(=O)CC[C@@]43CNC(=O)C(F)(F)F)[C@@H]1CCC2=O`, the INH on Aromatase [7] is listed as < 20%. With `C[C@]12CCCC=C1C(=O)C[C@@H]1[C@@H]2CC[C@]2(C)C(=O)CC[C@@H]12`, at Aromatase [2] (read-out: Ki), the pKi is 6.21. On Aromatase [3], this compound gave a pIC50 of 5.77. Regarding `C[C@]12CCCCC1=CC(=O)[C@@H]1[C@@H]2CC[C@]2(C)C(=O)CC[C@@H]12`, at Aromatase [2] (read-out: Ki), the pKi was 6.84.

For `CCCCC[C@@H]1C[C@@H]2[C@H](CC[C@]3(C)C(=O)CC[C@@H]23)[C@@]2(C)C=CC(=O)C=C12`, on Aromatase [2] (read-out: Ki(app)), the pKi was 8.30. The same measure, in the same setting: to `CC(=O)O[C@]12CCCCC1=CC(=O)[C@H]1[C@@H]3CCC(=O)[C@@]3(C)CC[C@@H]12` belongs 5.96. Consider `CC[C@@H]1C[C@@H]2[C@H](CC[C@]3(C)C(=O)CC[C@@H]23)[C@@]2(C)CCC(=O)C=C12`, for which the pKi on Aromatase [5] is 8.85. As to `C[C@@H]1C[C@@]2(C)C(=CC1=O)CC[C@@H]1[C@@H]2CC[C@]2(C)C(=O)CC[C@@H]12`, the pKi on Aromatase [1] (read-out: Ki) was 7.26. The same compound gave a pIC50 against Aromatase [8] of 6.16. For the compound `C[C@]12CC[C@H]3[C@@H](C(=O)C=C4CCCC[C@@]43O)[C@@H]1CCC2=O`, the pKi at Aromatase [2] (read-out: Ki(app)) was 5.96.

For `CC1(C)C[C@@]2(C)C(=CC1=O)CC[C@@H]1[C@@H]2CC[C@]2(C)C(=O)CC[C@@H]12`, on Aromatase [1] (read-out: Ki), the pKi is 8.06. The pIC50 against Aromatase [8] was 7.05. `C[C@]12CC[C@H]3[C@@H](CCC4=CC(=O)CC[C@@]43CN=[N+]=[N-])[C@@H]1CCC2=O` showed a pKi at Aromatase [4] of 8.30. Regarding `CCCC[C@H]1C[C@@H]2[C@H](CC[C@]3(C)C(=O)CC[C@@H]23)[C@@]2(C)CCC(=O)C=C12`, at Aromatase [5], the pKi is 8.85. The compound `CC1=C[C@@]2(C)C(=CC1=O)CC[C@@H]1[C@@H]2CC[C@]2(C)C(=O)CC[C@@H]12` had a pKi at Aromatase [6] of 7.34. Further, the pIC50 against Aromatase [3] is 6.24.

Consider `CC[C@]12CCC(=O)C=C1CC[C@@H]1[C@@H]2CC[C@]2(C)C(=O)CC[C@@H]12`, for which, on Aromatase [2] (read-out: Ki), the pKi is 8.09. In the case of `C[C@]12CCC(=O)C=C1C(=O)C[C@@H]1[C@@H]2CC[C@]2(C)C(=O)[C@H](O)C[C@@H]12`, the pKi on Aromatase [1] (read-out: Ki) was 5.93. With `C[C@]12CC[C@H]3[C@@H](CCC4=CC(=O)CC[C@@]43N=C=O)[C@@H]1CCC2=O`, the INH at Aromatase [7] is < 20%. Turning to `C#CC[C@H]1C[C@@H]2[C@H](CC[C@]3(C)C(=O)CC[C@@H]23)[C@@]2(C)CCC(=O)C=C12`, at Aromatase [5], the pKi is 7.43. Consider `C/C=C1\C[C@@H]2[C@H](CC[C@]3(C)C(=O)CC[C@@H]23)[C@@]2(C)CCC(=O)C=C12`, for which, at Aromatase [5], the pKi was 8.31. Take `CC1=C[C@@]2(C)C(=CC1=O)[C@@H](Br)C[C@@H]1[C@@H]2CC[C@]2(C)C(=O)CC[C@@H]12`: the pKi on Aromatase [6] is 7.09. This compound also showed a pIC50 on Aromatase [3] of 6.15. With `C[C@H]1C[C@@]2(C)C(=CC1=O)CC[C@@H]1[C@@H]2CC[C@]2(C)C(=O)CC[C@@H]12`, on Aromatase [1] (read-out: Ki), the pKi was 7.66. Besides, on Aromatase [8], the negative-log IC50 (pIC50) is 6.60. For the compound `CC(=O)NC[C@]12CCC(=O)C=C1CC[C@@H]1[C@@H]2CC[C@]2(C)C(=O)CC[C@@H]12`, the INH at Aromatase [7] is reported as < 20%. For the compound `CSC[C@]12CCC(=O)C=C1CC[C@@H]1[C@@H]2CC[C@]2(C)C(=O)CC[C@@H]12`, on Aromatase [4], the pKi is 9.00. As for `CCCC[C@@H]1C[C@@H]2[C@H](CC[C@]3(C)C(=O)CC[C@@H]23)[C@@]2(C)CCC(=O)C=C12`, the pKi on Aromatase [5] was 8.85. Regarding `C[C@]12CC[C@H]3[C@@H](CC=C4[C@H]5CSC[C@]43CCC5=O)[C@@H]1CCC2=O`, the pKi on Aromatase [4] is 5.00. The compound `C[C@]1(CC#N)CC[C@H]2[C@@H](CCC3=CC(=O)CC[C@@]32C)[C@@H]1CC#N` gave a pKi at Aromatase [4] of 5.00.

For `C[C@]12CC[C@H](OC=O)C=C1C(=O)C[C@@H]1[C@@H]2CC[C@]2(C)C(=O)CC[C@@H]12`, the pKi on Aromatase [2] (read-out: Ki) was 4.80. For the same compound, on Aromatase [3], the pIC50 was 5.77. Take `C[C@]12CC[C@H]3[C@@H](CCC4=CC(=O)CC[C@@]43C(=O)C(F)(F)F)[C@@H]1CCC2=O`: the pIC50 at Aromatase [4] was 4.59. Compound `C[C@]12CC[C@H]3[C@@H](CCC4=CC(=O)[C@H]5CC[C@]43C5)[C@@H]1CCC2=O` showed a pKi at Aromatase [4] of 5.00.

These data come from ChEMBL document CHEMBL3751755, “Developing steroidal aromatase inhibitors-an effective armament to win the battle against breast cancer” (Eur J Med Chem, 2015).
